Laboratory results: patent US12054486B2, “Pyridine derivatives and their use as sodium channel activators” (Xenon Pharmaceuticals Inc., priority 2021, dated 2024)

Key:
[1] = target: sodium channel isoforms of interest stably expressed in Human Embryonic Kidney Cells (voltage-gated sodium channel, particularly NaV1.1) (Homo sapiens, UniProt P35498); test: automated planar patch clamp assay of sodium channel gating (area under the sodium current trace); assay type: cell-based; conditions: HEK cells, voltage step from −120 mV to 0 mV, increasing concentrations
In short: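 Sodium channel isoforms stably expressed in HEK cells, recorded by automated planar patch clamp with depolarizing steps from −120 mV to 0 mV at increasing compound concentrations. Area under the current trace quantifies gating effect; peak current, inactivation time constant and steady-state inactivation also measured; potency from concentration responses.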

NaV1.1 = NaV1.1 (Homo sapiens, UniProt P35498); conditions: NaV1.1-expressing HEK cells; cited from earlier work
NaV1.5 = NaV1.5 (Homo sapiens, UniProt Q14524); conditions: relative to NaV1.1 activation; cited from earlier work
NaV1.5, sequence (Q14524 whole entry): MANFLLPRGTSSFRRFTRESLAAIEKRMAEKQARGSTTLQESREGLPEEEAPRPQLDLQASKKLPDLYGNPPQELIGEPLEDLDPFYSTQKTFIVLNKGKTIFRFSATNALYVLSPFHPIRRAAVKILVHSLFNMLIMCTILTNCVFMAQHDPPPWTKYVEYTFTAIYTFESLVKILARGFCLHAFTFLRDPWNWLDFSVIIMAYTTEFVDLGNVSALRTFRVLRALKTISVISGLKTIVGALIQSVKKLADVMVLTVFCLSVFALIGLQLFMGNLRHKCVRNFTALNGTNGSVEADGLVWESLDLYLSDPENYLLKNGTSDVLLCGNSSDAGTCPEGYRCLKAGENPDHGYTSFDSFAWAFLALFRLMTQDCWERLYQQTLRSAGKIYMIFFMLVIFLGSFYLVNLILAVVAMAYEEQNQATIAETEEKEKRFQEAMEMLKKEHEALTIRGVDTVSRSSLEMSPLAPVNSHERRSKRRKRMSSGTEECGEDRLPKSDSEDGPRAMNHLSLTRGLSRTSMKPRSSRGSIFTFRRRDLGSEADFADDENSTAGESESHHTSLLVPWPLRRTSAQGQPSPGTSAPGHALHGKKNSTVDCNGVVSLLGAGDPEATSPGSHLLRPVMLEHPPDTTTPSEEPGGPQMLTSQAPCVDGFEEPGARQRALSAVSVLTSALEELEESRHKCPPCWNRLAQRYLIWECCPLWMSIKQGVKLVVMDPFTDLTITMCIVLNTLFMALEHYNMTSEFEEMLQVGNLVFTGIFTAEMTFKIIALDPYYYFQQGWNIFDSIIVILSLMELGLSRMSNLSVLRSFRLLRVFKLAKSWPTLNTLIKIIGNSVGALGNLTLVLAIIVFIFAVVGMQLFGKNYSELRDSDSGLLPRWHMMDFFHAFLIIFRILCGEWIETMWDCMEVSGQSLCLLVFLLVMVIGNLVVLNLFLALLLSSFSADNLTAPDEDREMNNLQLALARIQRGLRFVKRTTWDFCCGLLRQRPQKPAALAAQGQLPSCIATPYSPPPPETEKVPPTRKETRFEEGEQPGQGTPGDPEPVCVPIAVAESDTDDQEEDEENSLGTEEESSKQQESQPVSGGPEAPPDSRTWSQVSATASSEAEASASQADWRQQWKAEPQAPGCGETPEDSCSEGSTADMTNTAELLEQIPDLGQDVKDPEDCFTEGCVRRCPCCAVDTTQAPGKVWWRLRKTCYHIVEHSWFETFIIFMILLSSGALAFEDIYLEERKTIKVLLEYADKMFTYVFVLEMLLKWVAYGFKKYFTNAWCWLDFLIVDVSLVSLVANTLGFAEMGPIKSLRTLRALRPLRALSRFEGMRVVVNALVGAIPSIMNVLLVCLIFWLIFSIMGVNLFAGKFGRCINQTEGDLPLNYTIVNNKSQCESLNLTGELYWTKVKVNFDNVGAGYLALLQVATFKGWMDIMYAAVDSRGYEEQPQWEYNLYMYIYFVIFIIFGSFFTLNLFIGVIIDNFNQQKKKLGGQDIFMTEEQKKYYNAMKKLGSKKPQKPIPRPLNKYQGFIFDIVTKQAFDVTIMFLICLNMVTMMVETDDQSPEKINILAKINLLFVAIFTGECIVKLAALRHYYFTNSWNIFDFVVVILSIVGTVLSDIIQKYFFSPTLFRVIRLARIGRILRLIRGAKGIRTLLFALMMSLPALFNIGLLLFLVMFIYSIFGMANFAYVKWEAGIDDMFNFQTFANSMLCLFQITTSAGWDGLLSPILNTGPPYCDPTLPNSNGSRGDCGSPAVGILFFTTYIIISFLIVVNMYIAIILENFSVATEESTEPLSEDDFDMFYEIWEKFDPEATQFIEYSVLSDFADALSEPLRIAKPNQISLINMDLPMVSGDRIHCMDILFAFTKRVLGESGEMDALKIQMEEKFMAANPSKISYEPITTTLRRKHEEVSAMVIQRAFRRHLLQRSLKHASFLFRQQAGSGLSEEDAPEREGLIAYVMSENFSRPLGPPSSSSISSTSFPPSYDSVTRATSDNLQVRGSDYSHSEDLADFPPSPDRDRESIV

NaV1.2 = NaV1.2 (Homo sapiens, UniProt Q99250); conditions: relative to NaV1.1 activation; cited from earlier work
NaV1.2, sequence (Q99250 whole entry): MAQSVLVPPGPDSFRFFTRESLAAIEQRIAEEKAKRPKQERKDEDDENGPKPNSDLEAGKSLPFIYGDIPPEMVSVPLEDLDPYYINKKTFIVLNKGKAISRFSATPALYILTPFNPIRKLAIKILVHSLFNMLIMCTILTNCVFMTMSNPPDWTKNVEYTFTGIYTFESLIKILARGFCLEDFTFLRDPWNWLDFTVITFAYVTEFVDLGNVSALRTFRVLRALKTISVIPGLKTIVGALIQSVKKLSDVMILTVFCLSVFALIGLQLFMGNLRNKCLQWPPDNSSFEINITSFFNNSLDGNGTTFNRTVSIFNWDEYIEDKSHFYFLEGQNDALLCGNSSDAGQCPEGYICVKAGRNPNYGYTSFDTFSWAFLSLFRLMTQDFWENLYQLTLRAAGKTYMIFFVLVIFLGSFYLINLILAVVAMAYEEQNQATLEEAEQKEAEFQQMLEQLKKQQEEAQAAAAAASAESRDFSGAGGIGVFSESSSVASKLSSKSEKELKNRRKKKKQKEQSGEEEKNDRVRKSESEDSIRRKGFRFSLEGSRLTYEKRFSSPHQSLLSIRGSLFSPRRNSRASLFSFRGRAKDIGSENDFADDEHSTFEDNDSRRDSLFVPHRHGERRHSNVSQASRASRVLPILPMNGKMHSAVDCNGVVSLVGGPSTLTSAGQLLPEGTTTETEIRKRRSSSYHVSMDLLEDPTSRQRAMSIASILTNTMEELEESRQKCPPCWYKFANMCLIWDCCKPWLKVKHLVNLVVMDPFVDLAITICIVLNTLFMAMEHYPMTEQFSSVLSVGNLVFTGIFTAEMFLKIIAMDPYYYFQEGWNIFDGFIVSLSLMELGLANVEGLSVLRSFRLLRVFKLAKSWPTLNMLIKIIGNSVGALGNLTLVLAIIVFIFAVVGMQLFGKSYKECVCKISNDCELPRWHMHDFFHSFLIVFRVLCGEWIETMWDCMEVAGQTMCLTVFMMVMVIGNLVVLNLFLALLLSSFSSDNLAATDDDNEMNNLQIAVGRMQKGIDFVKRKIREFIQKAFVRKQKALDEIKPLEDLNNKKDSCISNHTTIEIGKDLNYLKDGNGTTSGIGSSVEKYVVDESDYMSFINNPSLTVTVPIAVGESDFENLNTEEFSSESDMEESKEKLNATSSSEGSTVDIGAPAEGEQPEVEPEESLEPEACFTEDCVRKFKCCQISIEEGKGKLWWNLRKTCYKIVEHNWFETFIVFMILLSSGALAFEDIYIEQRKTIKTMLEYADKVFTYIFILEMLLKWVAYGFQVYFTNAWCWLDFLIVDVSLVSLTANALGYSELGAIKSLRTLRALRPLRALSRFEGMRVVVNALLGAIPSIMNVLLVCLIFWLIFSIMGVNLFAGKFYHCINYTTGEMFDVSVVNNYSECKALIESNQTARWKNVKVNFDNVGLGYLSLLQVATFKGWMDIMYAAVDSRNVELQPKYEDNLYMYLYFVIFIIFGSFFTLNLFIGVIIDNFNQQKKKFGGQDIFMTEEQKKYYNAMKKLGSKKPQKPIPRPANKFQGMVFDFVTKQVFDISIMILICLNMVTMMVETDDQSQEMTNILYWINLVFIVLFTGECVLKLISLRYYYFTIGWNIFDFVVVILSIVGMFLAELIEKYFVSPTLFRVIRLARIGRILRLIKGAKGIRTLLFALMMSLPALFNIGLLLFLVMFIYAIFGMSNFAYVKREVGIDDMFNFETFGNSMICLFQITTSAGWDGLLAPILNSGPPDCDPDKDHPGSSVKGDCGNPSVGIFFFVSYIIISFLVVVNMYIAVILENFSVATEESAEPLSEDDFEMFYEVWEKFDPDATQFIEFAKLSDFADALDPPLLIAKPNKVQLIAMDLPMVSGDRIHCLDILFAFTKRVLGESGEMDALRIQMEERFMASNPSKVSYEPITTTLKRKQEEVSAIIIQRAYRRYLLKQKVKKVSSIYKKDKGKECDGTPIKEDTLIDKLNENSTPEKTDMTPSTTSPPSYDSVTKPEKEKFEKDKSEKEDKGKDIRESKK

Row | SMILES | EC50 [1] [nM] | Empirical Emax [1] | concentration from which the total area under the curve for the duration of the depolarizing pulse is increased (NaV1.1) [µM] | selectivity against NaV1.5 (NaV1.5) | selectivity against NaV1.2 (NaV1.2)
1 | Fc1cccc(-c2ccnc(N3CCC(F)(F)C3)c2-c2nc3c([nH]2)CCOC3)c1F [Example 77, 2-[4-(2,3-difluorophenyl)-2-(3,3-difluoropyrrolidin-1-yl)-3-pyridyl]-1,4,6,7-tetrahydropyrano[3,4-d]imidazole] | < 1000 | ++++ (++++ indicates a value greater than 7.5) |  |  | 
2 | Fc1ccccc1-c1ccnc(N2CCC(F)(F)C2)c1-c1nc2ccncc2[nH]1 [Example 78, 2-[2-(3,3-difluoropyrrolidin-1-yl)-4-(2-fluorophenyl)-3-pyridyl]-1H-imidazo[4,5-c]pyridine] | < 1000 | ++++ (++++ indicates a value greater than 7.5) |  |  | 
3 | Cc1cc2nc(-c3c(-c4ccccc4F)ccnc3N3CCC(F)(F)C3)[nH]c2cn1 [Example 79, 2-[2-(3,3-difluoropyrrolidin-1-yl)-4-(2-fluorophenyl)-3-pyridyl]-6-methyl-3H-imidazo[4,5-c]pyridine] | < 1000 | ++++ (++++ indicates a value greater than 7.5) |  |  | 
4 | Cn1cc2nc(-c3c(-c4ccccc4F)ccnc3N3CCC(F)(F)C3)[nH]c2n1 [Example 80, 5-[2-(3,3-difluoropyrrolidin-1-yl)-4-(2-fluorophenyl)-3-pyridyl]-2-methyl-4H-imidazo[4,5-c]pyrazole] | 1000 to 10000 | +++ (+++ indicates a value from 5.0 up to 7.5 μM) |  |  | 
5 | CCCCNS(=O)(=O)c1ccc(OC)c(-c2nnc3c4ccccc4c(C)nn23)c1 [Lu AE98134] |  |  | ≥ 1 | low selectivity | moderate selectivity
